Experimental data reported in patent US11274095B2, “Modulators of methyl modifying enzymes, compositions and uses thereof” (Constellation Pharmaceuticals, Inc., priority 2018, dated 2022).
Like-named read-outs stand apart in the source and are kept apart here.

Assays:
PRC2 containing wt EZH2 [1] = target: T1, PRC2 containing wt EZH2 (Homo sapiens (Human), UniProt Q15910); assay: EZH2 biochemical assay (IC50), 3H-SAM incorporation into biotinylated H3 peptide; settings: 30 pM PRC2 with wt EZH2, 3-5 h pre-incubation
Protocol: EZH2 biochemical assay (IC50): Compound potencies were assessed through incorporation of ^3H-SAM into a biotinylated H3 peptide. Specifically, 30 pM PRC2 containing wt EZH2 (pentameric complex prepared in-house) was pre-incubated with 450 nM SAM, 450 nM ^3H-SAM, 2 μM H3K27me3 activating peptide (H2N-RKQLATKAAR(Kme3)SAPATGGVKKP-amide) and compounds (as 10 point duplicate dose response titrations in DMSO, final assay 0.8% DMSO (v/v)) for 3-5 h in 50 mM Tris (pH 8.5), 1 mM DTT, 0.07 mM Brij-35, 0.1% BSA, and 0.8% DMSO in a total volume of 12.5 μl. Reaction was initiated with biotinylated H3 substrate peptide (H2N-RKQLATKAAR(Kmel)SAPATGGVKKP-NTPEGBiot) as a 2 μM stock in 12.5 μl of buffer and allowed to react at room temperature for 18-22 h. Quenching was accomplished by addition of 20 μl of STOP solution (50 mM Tris (pH 8.5), 200 mM EDTA, 2 mM SAH). 35 μl of the quenched solution was transferred to streptavidin coated FlashPlates (PerkinElmer), incubated 1-2 h, washed, and read in a TopCount Reader (PerkinElmer). IC50s were calculated in Genedata Screener using non-linear least square four parameter fits, where the four parameters were IC50, Hill slope, pre-transitional baseline (0% INH), and post-transitional baseline (100% INH).

PRC2 containing wt EZH2 [2] = target: T1, PRC2 containing wt EZH2; assay: EZH2 residence time assay (100-fold dilution of enzyme-inhibitor complex); assay type: biochemical
Protocol: EZH2 residence time assay: Compound residence times were assessed by monitoring the recovery of enzyme activity following a 100-fold dilution of pre-formed enzyme-inhibitor complex (dilution reaction), and comparing it to the activity of an undiluted control with the same final concentrations of all reagents (control reaction). Enzyme activity was measured by incorporation of ^3H-SAM into a biotinylated H3 peptide. For the dilution reaction, 20 nM PRC2 containing wt EZH2 (pentameric complex prepared in-house) was pre-incubated with 1 μM activating peptide (H2N-RKQLATKAAR(Kme3)SAPATGGVKKP-amide) and compound at 600 times its Ki for 2 h in 40 μL of buffer (50 mM Tris pH 8.5, 4 mM DTT, 1 mM MgCl2, 0.07 mM Brij-35, and 0.1 mg/mL BSA), then diluted 100-fold and the reaction initiated by transferring 1.4 μL to a 138.6 μL volume of buffer containing 1 μM activating peptide, 5.05 μM substrate peptide (H2N-[…]-NTPEGbiot), 1.01 μM SAM, and 1.01 μM ^3H-SAM. […] Reactions were quenched at various time points spanning up to 10 hours, by transferring 8μL aliquots from the reaction vessel to a plate containing 8μL per well of STOP solution (50 mM Tris pH 8.5, 200 mM EDTA, 2 mM SAH). After the last time point, 12 μL of the quenched solutions were transferred to a streptavidin coated FlashPlate (PerkinElmer) containing 40 μL per well of STOP solution, incubated 1-8 h, washed, and read in a TopCount plate reader (PerkinElmer).
A custom script was used to fit control reaction progress data to a straight line and dilution reaction progress data:
[formula] Where y is the product formed, t is the reaction time, vi is the initial velocity, vs is the steady state velocity, and kobs is the rate constant for the transition from the initial velocity phase of the curve to the steady state velocity phase of the curve. In fitting the dilution reaction progress data, vs was constrained to the slope of the line fitted to the control reaction progress data. The fitted value of kobs was then transformed into residence time:
[formula] Where τ is residence time, Ki is the inhibition constant, [EI] is the calculated equilibrium concentration of enzyme-inhibitor complex, [E] is the calculated equilibrium concentration of free enzyme, and [I] is the calculated equilibrium concentration of free inhibitor.

Karpas-422 cell lines = assay: Karpas-422 viability assay (Cell Titer-Glo, Day 8); assay type: cell-based; settings: Homo sapiens, KARPAS-422, 192 h, Cell Titer-Glo on Day 8
Protocol: Karpas-422 cell lines were obtained from DSMZ (Braunschweig, Germany) and were grown in RPMI-1640 media. All media contained 10% fetal bovine serum (FBS) and 1% penicillin/streptomycin (Invitrogen). 20K cells per well were plated onto 96 well compound coated plates. Cells were split and seeded at original plating density (based on the DMSO well counts) every 4 days into plates containing fresh EZH2 inhibitors. Relative cell numbers were assessed by Cell Titer-Glo luminescent cell viability assay (Promega) on Day 8. GraphPad Prism 5 was used for curve fitting and GI50 values were reported.

H3K27me3 in Hela cells = assay: H3K27me3 Alpha Hela Assay (AlphaLISA); assay type: cell-based; settings: Homo sapiens, HeLa, 72 h
Protocol: H3K27me3 Alpha Hela Assay (AlphaLISA). Ten different doses of each test compound (in a series of 3-fold dilutions) were plated in duplicate 384-well tissue culture treated plates (Catalog #6007680; Perkin Elmer, Waltham, Mass.). Hela cells grown in culture were trypsinized and counted using a Countess® cell counter (Catalog #C10281; Life Technologies, Grand Island, N.Y.). Cell were diluted to 67,000 cells per mL in10% DMEM (Catalog #10569-010 Life Technologies, Grand Island, N.Y.) and 15 μL (1,000 cells) were plated into each well using the Biotek MicroFlo™ Select Dispenser (BioTek Instruments, Inc. Vermont, USA),) of the 384-well plate. Plates were incubated at 37° C./5% CO2 for 72 hrs. One of the duplicate plates was processed for HeLa assay and the other for viability. 5 μL of Cell-Histone Lysis buffer (1×) (Catalog #AL009F1 Perkin Elmer; Waltham, Mass.) per well was added to the plate processed for AlphaLISA and the plate was incubated at RT for 30 minutes on a plate shaker with low speed (Model# 4625-Q Thermo Scientific; Waltham, Mass.). Then, 10 μL per well Histone Extraction buffer (catalog #AL009F2; Perkin Elmer; Waltham, Mass.) was added and the plate further incubated at RT for 20 min on plate shaker with low speed. Next, 10 μL of 5× mix of anti-K27me3 acceptor beads plus Biotinylated anti-Histone H3 (C-ter) Antibody (diluted to 3 nM final) (Catalog #AL118 Perkin Elmer; Waltham, Mass.) was added in each well. Dilution of the acceptor beads and anti-Histone H3 was done in 1× Histone Detection buffer (Catalog #AL009F3 Perkin Elmer; Waltham, Mass.) which was produced by diluting the 10× stock provided. The plate was sealed with an aluminum plate sealer and incubated at 23° C. for 60 min. Next, 10 μL 5× solution of Streptavidin Donor beads were added (Catalog #6760002 Perkin Elmer; Waltham, Mass.) (20 μg/mL final in 1× Histone Detection Buffer), =plate was sealed with Aluminum plate sealer and incubated at 23° C. for 30 min. The plates were then read using an EnVision-Alpha Reader (model #2104 Perkin Elmer; Waltham, Mass.). […]

[3] = recovery of enzyme activity after 100-fold dilution, read-out: EZH2 residence time (converted)

T1 sequence (Q15910 whole entry): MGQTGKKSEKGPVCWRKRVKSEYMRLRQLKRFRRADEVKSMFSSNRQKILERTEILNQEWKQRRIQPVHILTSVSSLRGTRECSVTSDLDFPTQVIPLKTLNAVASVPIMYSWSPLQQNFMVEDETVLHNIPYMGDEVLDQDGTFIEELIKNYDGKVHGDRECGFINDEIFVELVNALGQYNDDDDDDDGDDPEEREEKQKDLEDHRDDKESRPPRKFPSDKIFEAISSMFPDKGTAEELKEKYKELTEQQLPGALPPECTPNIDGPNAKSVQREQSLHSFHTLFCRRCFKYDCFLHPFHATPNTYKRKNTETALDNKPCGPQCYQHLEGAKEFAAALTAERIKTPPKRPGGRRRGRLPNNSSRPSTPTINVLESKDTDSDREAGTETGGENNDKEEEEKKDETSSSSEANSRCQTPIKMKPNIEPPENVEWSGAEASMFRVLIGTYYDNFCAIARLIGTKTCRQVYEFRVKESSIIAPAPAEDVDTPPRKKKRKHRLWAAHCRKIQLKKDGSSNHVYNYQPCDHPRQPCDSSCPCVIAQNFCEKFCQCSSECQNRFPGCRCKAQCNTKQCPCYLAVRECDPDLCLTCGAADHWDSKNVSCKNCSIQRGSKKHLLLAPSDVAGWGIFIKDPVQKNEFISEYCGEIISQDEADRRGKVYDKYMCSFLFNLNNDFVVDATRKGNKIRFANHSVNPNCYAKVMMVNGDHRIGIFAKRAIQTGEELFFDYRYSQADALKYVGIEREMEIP
T1 sequence (O75530 whole entry partner): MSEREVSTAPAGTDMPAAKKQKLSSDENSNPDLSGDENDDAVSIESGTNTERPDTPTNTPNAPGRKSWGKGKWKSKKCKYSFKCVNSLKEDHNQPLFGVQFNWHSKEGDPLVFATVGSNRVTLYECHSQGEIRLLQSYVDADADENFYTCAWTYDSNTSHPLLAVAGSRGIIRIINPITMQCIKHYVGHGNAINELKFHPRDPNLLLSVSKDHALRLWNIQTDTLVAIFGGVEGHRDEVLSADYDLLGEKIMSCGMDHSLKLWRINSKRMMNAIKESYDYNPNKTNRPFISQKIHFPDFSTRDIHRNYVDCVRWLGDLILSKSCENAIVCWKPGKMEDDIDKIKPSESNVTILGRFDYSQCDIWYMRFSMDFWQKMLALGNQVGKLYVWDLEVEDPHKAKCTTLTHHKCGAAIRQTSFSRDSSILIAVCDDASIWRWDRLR
T1 sequence (Q15022 whole entry partner): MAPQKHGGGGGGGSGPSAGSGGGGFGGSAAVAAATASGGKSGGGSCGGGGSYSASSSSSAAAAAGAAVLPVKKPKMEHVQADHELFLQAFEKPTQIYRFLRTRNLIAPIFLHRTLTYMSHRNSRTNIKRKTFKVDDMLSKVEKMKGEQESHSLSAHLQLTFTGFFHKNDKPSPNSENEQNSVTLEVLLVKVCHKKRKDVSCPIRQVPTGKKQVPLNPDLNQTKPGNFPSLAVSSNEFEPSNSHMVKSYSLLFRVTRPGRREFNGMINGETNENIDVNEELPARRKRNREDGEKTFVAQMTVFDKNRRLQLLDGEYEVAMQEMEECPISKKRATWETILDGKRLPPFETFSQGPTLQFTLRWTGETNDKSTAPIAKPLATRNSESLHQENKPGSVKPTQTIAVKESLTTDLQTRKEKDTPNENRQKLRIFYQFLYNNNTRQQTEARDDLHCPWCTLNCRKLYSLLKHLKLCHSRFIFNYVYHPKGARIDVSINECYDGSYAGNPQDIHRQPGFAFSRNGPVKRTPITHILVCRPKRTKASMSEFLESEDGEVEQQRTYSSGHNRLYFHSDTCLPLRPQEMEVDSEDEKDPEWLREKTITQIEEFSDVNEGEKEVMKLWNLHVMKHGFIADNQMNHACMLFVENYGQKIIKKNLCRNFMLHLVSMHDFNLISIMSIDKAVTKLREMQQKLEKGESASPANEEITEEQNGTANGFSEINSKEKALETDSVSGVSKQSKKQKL
T1 sequence (Q09028 whole entry partner): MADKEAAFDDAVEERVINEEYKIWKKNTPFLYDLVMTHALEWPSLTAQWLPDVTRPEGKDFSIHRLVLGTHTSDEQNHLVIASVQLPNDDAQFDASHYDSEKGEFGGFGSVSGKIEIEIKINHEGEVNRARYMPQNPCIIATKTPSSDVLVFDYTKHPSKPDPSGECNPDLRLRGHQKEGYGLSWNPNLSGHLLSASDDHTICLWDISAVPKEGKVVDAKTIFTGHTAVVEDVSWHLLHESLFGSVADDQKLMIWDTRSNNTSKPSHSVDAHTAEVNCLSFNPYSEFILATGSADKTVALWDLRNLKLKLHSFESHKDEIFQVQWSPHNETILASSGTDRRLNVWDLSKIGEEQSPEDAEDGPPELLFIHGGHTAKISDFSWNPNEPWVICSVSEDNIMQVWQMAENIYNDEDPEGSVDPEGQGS
T1 sequence (Q6ZN18 whole entry partner): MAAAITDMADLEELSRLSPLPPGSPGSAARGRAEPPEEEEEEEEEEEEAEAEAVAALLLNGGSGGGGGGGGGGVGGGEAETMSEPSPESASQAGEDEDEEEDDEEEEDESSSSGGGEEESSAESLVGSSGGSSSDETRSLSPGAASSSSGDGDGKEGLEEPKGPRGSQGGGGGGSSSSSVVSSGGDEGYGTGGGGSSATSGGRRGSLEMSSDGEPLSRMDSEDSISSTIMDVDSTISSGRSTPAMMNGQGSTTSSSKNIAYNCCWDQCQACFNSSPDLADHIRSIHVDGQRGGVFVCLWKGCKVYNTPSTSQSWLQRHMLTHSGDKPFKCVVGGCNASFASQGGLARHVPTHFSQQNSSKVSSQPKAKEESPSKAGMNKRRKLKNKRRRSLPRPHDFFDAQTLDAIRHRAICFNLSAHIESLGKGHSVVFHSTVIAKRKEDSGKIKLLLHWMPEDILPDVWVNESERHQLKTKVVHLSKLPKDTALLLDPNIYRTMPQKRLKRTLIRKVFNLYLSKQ

| SMILES | IC50 (PRC2 containing wt EZH2 [1]) | GI50 (Karpas-422 cell lines) | EC50 (H3K27me3 in Hela cells) | residence time (PRC2 containing wt EZH2 [2]; [3]) | residence time (PRC2 containing wt EZH2 [2]; read-out: EZH2 residence time) |
| --- | --- | --- | --- | --- | --- |
| CSc1cc(C)[nH]c(=O)c1CNC(=O)c1cc(Cl)c2c(c1C)OC(C)(C1CCC(N3CC(OC(F)F)C3)CC1)O2 (single isomer, unassigned) [Example 1, 7-chloro-2-(4-(3-(difluoromethoxy)azetidin-1-yl)cyclohexyl)-2,4-dimethyl-N-((6-methyl-4-(methylthio)-2-oxo-1,2-dihydropyridin-3-yl)methyl)benzo[d][1,3]dioxole-5-carboxamide] | 0.091 nM | 3.9 nM | 0.52 nM | – | > 6000 min |
| CSc1nc(C)[nH]c(=O)c1CNC(=O)c1cc(Cl)c2c(c1C)OC(C)(C1CCC(N3CC(OC(F)F)C3)CC1)O2 (single isomer, unassigned) [Example 10] | 0.202 nM | 20 nM | 1.9 nM | 2220 min | – |
| CSc1cc(C)[nH]c(=O)c1CNC(=O)c1cc(Cl)c2c(c1C)OC(C)(C1CCC(N3CC(F)C3)CC1)O2 (single isomer, unassigned) [Example 12] | 0.092 nM | 4.4 nM | 0.59 nM | > 6000 min | – |
| COC1CN(C2CCC(C3(C)Oc4c(Cl)cc(C(=O)NCc5c(SC)cc(C)[nH]c5=O)c(C)c4O3)CC2)C1 (single isomer, unassigned) [Example 17, 7-chloro-2-(4-(3-methoxyazetidin-1-yl)cyclohexyl)-2,4-dimethyl-N-((6-methyl-4-(methylthio)-2-oxo-1,2-dihydropyridin-3-yl)methyl)benzo[d][1,3]dioxole-5-carboxamide] | 0.043 nM | 3.5 nM | 0.33 nM | > 6000 min | – |

More lines, main results first:

| IC50 (PRC2 containing wt EZH2 [1]) | GI50 (Karpas-422 cell lines) | EC50 (H3K27me3 in Hela cells) | residence time (PRC2 containing wt EZH2 [2]; [3]) | SMILES | residence time (PRC2 containing wt EZH2 [2]; read-out: EZH2 residence time) |
| --- | --- | --- | --- | --- | --- |
| 0.039 nM | 5 nM | 0.52 nM | > 6000 min | Cc1cc(Cl)c(CNC(=O)c2cc(Cl)c3c(c2C)OC(C)(C2CCC(N4CC(OC5CC5)C4)CC2)O3)c(=O)[nH]1 (single isomer, unassigned) [Example 8, 7-chloro-N-((4-chloro-6-methyl-2-oxo-1,2-dihydropyridin-3-yl)methyl)-2-(4-(3-cyclopropoxyazetidin-1-yl)cyclohexyl)-2,4-dimethylbenzo[d][1,3]dioxole-5-carboxamide] | – |
| 0.054 nM | 3.7 nM | 0.61 nM | > 6000 min | CSc1cc(C)[nH]c(=O)c1CNC(=O)c1cc(Cl)c2c(c1C)OC(C)(C1CCC(N3CC(OC4CC4)C3)CC1)O2 (single isomer, unassigned) [Example 9] | – |
| 0.084 nM | 9.7 nM | 0.81 nM | 2880 min | Cc1cc(Cl)c(CNC(=O)c2cc(Cl)c3c(c2C)OC(C)(C2CCC(N4CC(OC(F)F)C4)CC2)O3)c(=O)[nH]1 (single isomer, unassigned) [Example 13] | – |
